pIC50: −log10 of the molar value.
assay: Inhibition of CRTH2-mediated chemotaxis of human eosinophils towards PGD2 after 30 mins by fluorescence counter

| pIC50 | SMILES |
| --- | --- |
| 6.91 | O=C(O)COc1ccc(Cl)cc1C#Cc1ccccc1Cl |

assay: Antagonist activity at CRTH2 in human blood cells assessed as inhibition of PGD2-induced eosinophil cell shape change after 10 mins by flow cytometry

| pIC50 | SMILES |
| --- | --- |
| 8.52 | CCN(Cc1cc(-c2ccc(OC)cn2)ccc1-c1cc(CC(=O)O)ccc1OC)C(=O)C1CC1 |
| 6.51 | Cc1ccc(S(=O)(=O)N2CCCCC2C)cc1C#Cc1cc(Cl)ccc1OCC(=O)O (centres undefined) |
| 6.54 | CN(C)S(=O)(=O)c1cncc(C#Cc2cc(Cl)ccc2OCC(=O)O)c1 |
| 7.06 | COCCNS(=O)(=O)c1ccc(C)c(C#Cc2cc(Cl)ccc2OCC(=O)O)c1 |
| 6.51 | Cc1ccc(S(=O)(=O)CCCO)cc1C#Cc1cc(Cl)ccc1OCC(=O)O |
| 7.64 | CCCS(=O)(=O)c1ccc(Cl)c(C#Cc2cc(Cl)ccc2OCC(=O)O)c1 |
| 6.72 | Cc1ccc(S(=O)(=O)C(C)C)cc1C#Cc1cc(Cl)ccc1OCC(=O)O |
| 7.09 | CCCS(=O)(=O)c1ccc(C)c(C#Cc2cc(Cl)ccc2OCC(=O)O)c1 |
| 5.16 | O=C(O)COc1ccc(Cl)cc1C#Cc1cccc(Cl)c1 |
| 7.64 | Cc1ccc(S(=O)(=O)N(C)C)cc1C#Cc1cc(Cl)ccc1OCC(=O)O |
| 6.60 | Cc1ccc(S(=O)(=O)NC(C)C)cc1C#Cc1cc(Cl)ccc1OCC(=O)O |
| 6.17 | O=C(O)COc1ccc(Cl)cc1C#Cc1ccc(CO)cc1F |
| 5.37 | O=C(O)COc1ccc(Cl)cc1C#Cc1ccc2c(c1)S(=O)(=O)c1ccccc1-2 |
| 7.02 | CS(=O)(=O)c1ccc(F)c(C#Cc2cc(Cl)ccc2OCC(=O)O)c1 |
| 7.04 | CC(C)S(=O)(=O)c1ccc(F)c(C#Cc2cc(Cl)ccc2OCC(=O)O)c1 |
| 7.17 | CC(C)S(=O)(=O)c1ccc(Cl)c(C#Cc2cc(Cl)ccc2OCC(=O)O)c1 |
| 7.40 | CCNS(=O)(=O)c1ccc(C)c(C#Cc2cc(Cl)ccc2OCC(=O)O)c1 |
| 5.92 | CCCc1ccc(S(C)(=O)=O)cc1C#Cc1cc(Cl)ccc1OCC(=O)O |
| 7.11 | COCCN(C)S(=O)(=O)c1ccc(C)c(C#Cc2cc(Cl)ccc2OCC(=O)O)c1 |
| 6.59 | Cc1ccc(S(=O)(=O)c2ccccc2)cc1C#Cc1cc(Cl)ccc1OCC(=O)O |
| 7.64 | CCCS(=O)(=O)c1ccc(F)c(C#Cc2cc(Cl)ccc2OCC(=O)O)c1 |
| 7.19 | Cc1ccc(S(C)(=O)=O)cc1C#Cc1cc(Cl)ccc1OCC(=O)O |
| 6.12 | CCCS(=O)(=O)c1cccc(C#Cc2cc(Cl)ccc2OCC(=O)O)c1 |
| 6.44 | CC(C)c1ccc(S(C)(=O)=O)cc1C#Cc1cc(Cl)ccc1OCC(=O)O |
| 6.00 | O=C(O)COc1ccc(Cl)cc1C#Cc1cccc(S(=O)(=O)CCO)c1 |
| 7.59 | CS(=O)(=O)c1ccc(Cl)c(C#Cc2cc(Cl)ccc2OCC(=O)O)c1 |
| 6.92 | Cc1ccc(S(=O)(=O)CC(C)C)cc1C#Cc1cc(Cl)ccc1OCC(=O)O |
| 6.85 | Cc1ccc(S(=O)(=O)N(C)C(C)C)cc1C#Cc1cc(Cl)ccc1OCC(=O)O |

Reference: BindingDB's records for doi:10.1021/jm200866y (Merck Serono, 2011)
